Data: US20260256792A1, “TREATMENT OF CHRONIC SPONTANEOUS URTICARIA BY ADMINISTERING (R)-2-[3-[4-AMINO-3-(2-FLUORO-4-PHENOXY-PHENYL)PYRAZOLO[3,4-D]PYRIMIDIN-1-YL]PIPERIDINE-1-CARBONYL]-4-METHYL-4-[4-(OXETAN-3-YL)PIPERAZIN-1-YL]PENT-2-ENENITRILE” (priority 2023, published 2026)

Tested on: patients with moderate-to-severe CSU
Test: Phase 2 CSU study: safety (TEAEs, SAEs, AESIs), double-blind period
[1] = 400 mg BID (N = 41), double-blind period, safety population

CC(C)(C=C(C#N)C(=O)N1CCC[C@@H](n2nc(-c3ccc(Oc4ccccc4)cc3F)c3c(N)ncnc32)C1)N1CCN(C2COC2)CC1 [rilzabrutinib, (R)-2-[3-[4-amino-3-(2-fluoro-4-phenoxy-phenyl)pyrazolo[3,4-d]pyrimidin-1-yl]piperidine-1-carbonyl]-4-methyl-4-[4-(oxetan-3-yl)piperazin-1-yl]pent-2-enenitrile]
Participants with any TEAE [1]: 30 (73.2) n (%) | Participants with any TEAE leading to death [1]: 0 n (%) | Participants with any TEAE leading to death (400 mg QPM (N = 38), double-blind period, safety population): 0 n (%) | Participants with any TEAE leading to death (400 mg TID (N = 41), double-blind period, safety population): 0 n (%) | patients with ALT increases>3×ULN (AESI) (BID cohort): 1 patient | patients with ALT increases>3×ULN (AESI) (QPM cohort): 2 patients | patients with ALT increases>3×ULN (AESI) (TID cohort): 1 patient | drug-induced liver injuries (including Hy's law) (double-blind period): no drug-induced liver injuries | severe/serious infections or opportunistic infections (double-blind period): no severe/serious infections or opportunistic infections | deaths (throughout the study): no deaths | treatment-emergent SAEs (throughout the study, same incidence across all rilzabrutinib dosing groups): 3
